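Values below derive from 48-hour exposures of cells grown in 96-well plates, with endpoints linearly interpolated between the two concentrations bracketing the appropriate inhibition level. Abbreviation: GI50, concentration required for 50% inhibition of growth. TGI: total growth inhibition.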
Legend:
Assay in all cases: NCI tumour cell line growth inhibition, 48 h
[1] = tested on: M14 melanoma
[2] = tested on: UACC-257 melanoma
[3] = tested on: HCT-116 colon
[4] = tested on: OVCAR-3 ovarian
[5] = tested on: SK-MEL-28 melanoma
[6] = tested on: U251 CNS
[7] = tested on: HCT-15 colon
[8] = tested on: SK-OV-3 ovarian
[9] = tested on: HT29 colon
[10] = tested on: UO-31 renal
[11] = tested on: SF-268 CNS
[12] = tested on: SK-MEL-2 melanoma
[13] = tested on: SW-620 colon
[14] = tested on: MDA-MB-231 breast
[15] = tested on: OVCAR-8 ovarian
[16] = tested on: NCI-H522 lung
[17] = tested on: NCI-H460 lung
[18] = tested on: MCF7 breast
[19] = tested on: T-47D breast
[20] = tested on: 786-0 renal
[21] = tested on: MDA-MB-435
[22] = tested on: RXF 393 renal
[23] = tested on: A549 NSCLC
[24] = tested on: DU-145 prostate
[25] = tested on: NCI-H226 lung
[26] = tested on: SF-295 CNS
[27] = tested on: IGROV1 ovarian
[28] = tested on: K-562 leukemia
[29] = tested on: SNB-19 CNS
[30] = tested on: LOX IMVI melanoma
[31] = tested on: SN12C renal
[32] = tested on: SNB-75 CNS
[33] = tested on: OVCAR-5 ovarian
[34] = tested on: CAKI-1 renal
[35] = tested on: PC-3 prostate
[36] = tested on: UACC-62 melanoma
[37] = tested on: ACHN renal
[38] = tested on: KM12 colon
[39] = tested on: MOLT-4 leukemia
[40] = tested on: HS 578T breast
[41] = tested on: COLO 205 colon
[42] = tested on: TK-10 renal
[43] = tested on: NCI/ADR-RES ovarian
[44] = tested on: HOP-62 NSCLC
[45] = tested on: EKVX NSCLC
[46] = tested on: HL-60(TB) leukemia
[47] = tested on: CCRF-CEM leukemia
[48] = tested on: SR leukemia
[49] = tested on: HOP-92 NSCLC
[50] = tested on: SF-539 CNS
[51] = tested on: RPMI-8226 leukemia
[52] = tested on: SK-MEL-5 melanoma
[53] = tested on: BT-549 breast
[54] = tested on: MALME-3M melanoma
[55] = tested on: OVCAR-4 ovarian
[56] = tested on: HCC-2998 colon
[57] = tested on: NCI-H23 lung

SMILES: c1ccc(Cc2cc(-c3ccccc3)n[nH]2)cc1
- TGI [1]: 80.1 µM
- TGI [2]: 31.5 µM
- TGI [3]: 88.9 µM
- TGI [4]: 16.8 µM
- TGI [5]: 25.8 µM
- TGI [6]: 27.9 µM
- TGI [7]: 53 µM
- TGI [8]: > 100 µM
- TGI [9]: 23.2 µM
- TGI [10]: 49.8 µM
- TGI [11]: 57.6 µM
- TGI [12]: 31.8 µM
- TGI [13]: 28.7 µM
- TGI [14]: 25.8 µM
- TGI [15]: 30.9 µM
- TGI [16]: 33.2 µM
- TGI [17]: 33.3 µM
- TGI [18]: 40.3 µM
- TGI [19]: > 100 µM
- TGI [20]: 43.4 µM
- TGI [21]: 22.8 µM
- TGI [22]: 22.1 µM
- TGI [23]: 26 µM
- TGI [24]: 26.2 µM
- TGI [25]: 33.5 µM
- TGI [26]: 19.5 µM
- TGI [27]: 34 µM
- TGI [28]: 25.6 µM
- TGI [29]: 82.7 µM
- TGI [30]: 28.3 µM
- TGI [31]: 26.3 µM
- TGI [32]: 15.8 µM
- TGI [33]: 47.9 µM
- TGI [34]: 32.9 µM
- TGI [35]: 34.2 µM
- TGI [36]: 27.4 µM
- TGI [37]: 36.4 µM
- TGI [38]: 28.8 µM
- TGI [39]: 23.1 µM
- TGI [40]: 36.7 µM
- TGI [41]: 31.2 µM
- TGI [42]: 42.5 µM
- TGI [43]: 49.4 µM
- TGI [44]: 92.9 µM
- TGI [45]: 27.5 µM
- TGI [46]: 39.3 µM
- TGI [47]: 27 µM
- TGI [48]: 32.3 µM

SMILES: Cc1c2c(nn1-c1ccc(S/N=C3\SCC(=O)CN3Cc3ccccc3)cc1)-c1ccccc1CC2
- GI50 [1]: 46.5 µM
- TGI [1]: > 100 µM
- GI50 [2]: 38.2 µM
- TGI [2]: > 100 µM
- GI50 [49]: > 100 µM
- TGI [49]: > 100 µM
- GI50 [4]: 25.2 µM
- TGI [4]: 68.3 µM
- GI50 [5]: 24.6 µM
- TGI [5]: 62.4 µM
- GI50 [6]: 21.8 µM
- TGI [6]: 78.9 µM
- GI50 [7]: 31.7 µM
- TGI [7]: > 100 µM
- GI50 [8]: 88.9 µM
- TGI [8]: > 100 µM
- GI50 [9]: 51.5 µM
- TGI [9]: > 100 µM
- GI50 [10]: 64.3 µM
- TGI [10]: > 100 µM
- GI50 [11]: 17.6 µM
- TGI [11]: 46.1 µM
- GI50 [12]: 58.2 µM
- TGI [12]: > 100 µM
- GI50 [13]: 25.5 µM
- TGI [13]: > 100 µM
- GI50 [14]: 24.8 µM
- TGI [14]: 87.3 µM
- GI50 [15]: 41 µM
- TGI [15]: > 100 µM
- GI50 [16]: 22.6 µM
- TGI [16]: 59.7 µM
- GI50 [17]: 29.4 µM
- TGI [17]: > 100 µM
- GI50 [50]: 29.5 µM
- TGI [50]: 58.2 µM
- GI50 [51]: 31.1 µM
- TGI [51]: > 100 µM
- GI50 [18]: 3.74 µM
- TGI [18]: 35 µM
- GI50 [19]: 82.9 µM
- TGI [19]: > 100 µM
- GI50 [20]: 89.2 µM
- TGI [20]: > 100 µM
- GI50 [21]: 20.6 µM
- TGI [21]: 48.5 µM
- GI50 [22]: 22.6 µM
- TGI [22]: 54.7 µM
- GI50 [23]: 46.7 µM
- TGI [23]: > 100 µM
- GI50 [24]: 50.5 µM
- TGI [24]: > 100 µM
- GI50 [52]: 9.08 µM
- TGI [52]: 29.5 µM
- GI50 [25]: 38.5 µM
- TGI [25]: > 100 µM
- GI50 [26]: 25.7 µM
- TGI [26]: 91.5 µM
- GI50 [27]: 24 µM
- TGI [27]: > 100 µM
- GI50 [28]: 30.1 µM
- TGI [28]: > 100 µM
- GI50 [29]: > 100 µM
- TGI [29]: > 100 µM
- GI50 [30]: 10.7 µM
- TGI [30]: 25 µM
- GI50 [53]: 22.5 µM
- TGI [53]: 54.7 µM
- GI50 [54]: 41.4 µM
- TGI [54]: 82.7 µM
- GI50 [31]: 26.7 µM
- TGI [31]: 99.7 µM
- GI50 [32]: 75.9 µM
- TGI [32]: > 100 µM
- GI50 [33]: > 100 µM
- TGI [33]: > 100 µM
- GI50 [55]: 96.7 µM
- TGI [55]: > 100 µM
- GI50 [34]: 26.6 µM
- TGI [34]: 87.6 µM
- GI50 [35]: 27.7 µM
- TGI [35]: > 100 µM
- GI50 [36]: 28.3 µM
- TGI [36]: > 100 µM
- GI50 [37]: 32.9 µM
- TGI [37]: > 100 µM
- GI50 [38]: 60.1 µM
- TGI [38]: > 100 µM
- GI50 [39]: 9.62 µM
- TGI [39]: > 100 µM
- GI50 [41]: 63.4 µM
- TGI [41]: > 100 µM
- GI50 [42]: 50.4 µM
- TGI [42]: > 100 µM
- GI50 [43]: 39.2 µM
- TGI [43]: > 100 µM
- GI50 [56]: 72.9 µM
- TGI [56]: > 100 µM
- GI50 [44]: > 100 µM
- TGI [44]: > 100 µM
- GI50 [45]: 46.6 µM
- TGI [45]: > 100 µM
- GI50 [46]: 34.1 µM
- TGI [46]: > 100 µM
- GI50 [57]: 49.8 µM
- TGI [57]: > 100 µM
- GI50 [47]: 6.45 µM
- TGI [47]: > 100 µM
- GI50 [48]: 8.35 µM
- TGI [48]: > 100 µM
